Read-outs that look alike come from different tables or passages of the source.
Test system: HEK-CMV-Luc2-Hygro cells
Assay: High-throughput genome-wide siRNA screen and validation screen for luciferase expression
Type: cell-based, human
Conditions: for per_cell / VIA: Table 3; for per_cell: per cell luciferase yield relative to negative control; for VIA: viable cell density as % of negative control; for Luciferase activity (%) / Per cell luciferase yield (%) / Viable cell number (%): Table 6, polyamine pathway gene siRNAs
Procedure: The Silencer Select™ Human genome siRNA library (Ambion), which targets 21,585 human genes with 3 siRNAs per gene, was used for screening. Each siRNA is arrayed in an individual well (Corning 3570, 384 well, white, solid bottom plates). The transfection was done in duplicates: 0.8 pmol of each siRNA was spotted to a well of a 384-well plate (Corning) and 20 μL of serum-free DMEM containing 0.07 μL of Lipofectamine™ RNAiMax (Life Technologies) was then added to each well. This lipid-siRNA mixture was incubated at ambient temperature for 30 min prior to addition of 4000 cells in 20 μL of DMEM containing 20% FBS (Gibco). After incubating the transfected cells at 37° C. in 5% CO2 for 72 hours, 20 μL of ONE-Glo™ Reagent (Promega) was added to one set of replicates for ‘overall luciferase yield’ quantification and 20 μL of CellTiter-Glo™ Reagent (Promega) was added to the second set of replicates for ‘viable cell density’ measurement. All plates were incubated at room temperature for 20 minutes to stabilize the luminescent signal and the signal was then measured with PerkinElmer Envision 2104 Multilabel™ plate reader.
The 56 genes which got targeted by at least two independent siRNAs (out of three) resulting in enhanced luciferase production with MAD-based z-score>3 from the primary screen were subjected to validation screen using 3 additional Silencer™ siRNAs (Ambion) with different sequences from those used in the primary screen. […] The transfection and assay processes were-the same as the primary genome-wide screen. Data visualization was performed in R computational environment (available on the World Wide Web at R-project.org/) by using ‘hexbin’ and ‘ggplot2’ packages.
The screen generated end-point data for ‘overall luciferase yield’ and ‘viable cell density’ in each well. For each plate, the median value of the negative control wells was set as 100% and was used to normalize corresponding sample wells. The ‘overall luciferase yield’ and ‘viable cell density’ were exported as % of negative control and the median absolute deviation (MAD)-based z-score was calculated for each sample.

[1] = Table 4, primary screen, 72 h, negative control = 100%

73 (GUCCGAGUGUGGUUCUGUATT; chemistry not given here; listed as Homo sapiens) [compound 73]
per_cell (primary screen, 72 h): 180.4 | VIA (primary screen, 72 h): 85.82

217 (ACAUCGUCCACUUCCAGUATT; chemistry not given here; listed as Homo sapiens) [compound 217]
Luciferase activity (%): 97.4% | Per cell luciferase yield (%): 101.1% | Viable cell number (%): 96.3%

108 (CGGAAUCAAUGAUCCUGUATT; chemistry not given here; listed as Homo sapiens) [compound 108]
Viable cell density (%) [1]: 71.395% | per cell luciferase yield (%) [1]: 212.652%

193 (GGGACACUGUCAACCUCUATT; chemistry not given here; listed as Homo sapiens) [compound 193]
Viable cell density (%) [1]: 74.811% | per cell luciferase yield (%) [1]: 205.132%

59 (AGAUCUUUGUCAAGGUGUATT; chemistry not given here; listed as Homo sapiens) [compound 59]
per_cell (primary screen, 72 h): 153.4 | VIA (primary screen, 72 h): 96.26

89 (GGAUCACGCAGCUCAAGAUTT; chemistry not given here; listed as Homo sapiens) [compound 89]
per_cell (primary screen, 72 h): 161.6 | VIA (primary screen, 72 h): 91.54

205 (CUCUGAUUGUCACCUCUUATT; chemistry not given here; listed as Homo sapiens) [compound 205]
Viable cell density (%) [1]: 61.943% | per cell luciferase yield (%) [1]: 281.113%

104 (GGCGAAUGCUCCUGACUAATT; chemistry not given here; listed as Homo sapiens) [compound 104]
Viable cell density (%) [1]: 103.888% | per cell luciferase yield (%) [1]: 156.977%

220 (CCGGGAAAGUUUGACUGCATT; chemistry not given here; listed as Homo sapiens) [compound 220]
Luciferase activity (%): 101.5% | Per cell luciferase yield (%): 133.9% | Viable cell number (%): 75.8%

90 (GGUGCUCUCGGUUGCACAATT; chemistry not given here; listed as Homo sapiens) [compound 90]
per_cell (primary screen, 72 h): 187.4 | VIA (primary screen, 72 h): 82.33

187 (AGAAAGCUUUGGGCAAAUATT; chemistry not given here; listed as Homo sapiens) [compound 187]
Viable cell density (%) [1]: 75.570% | per cell luciferase yield (%) [1]: 200.070%

186 (CGAAACUUGUCAACGGGAATT; chemistry not given here; listed as Homo sapiens) [compound 186]
Viable cell density (%) [1]: 104.553% | per cell luciferase yield (%) [1]: 179.207%

177 (CUCUUAUGGUAACCAAUGATT; chemistry not given here; listed as Homo sapiens) [compound 177]
Viable cell density (%) [1]: 91.558% | per cell luciferase yield (%) [1]: 160.246%

61 (GGACGGAAGCGAAAAUCGATT; chemistry not given here; listed as Homo sapiens) [compound 61]
per_cell (primary screen, 72 h): 216.2 | VIA (primary screen, 72 h): 71.47

121 (CAUUGGUUUUGAUGAGUAUTT; chemistry not given here; listed as Homo sapiens) [compound 121]
Viable cell density (%): 64.385% | per cell luciferase yield (%) [1]: 226.659%

203 (GAUUACUUCUUGACUAUCATT; chemistry not given here; listed as Homo sapiens) [compound 203]
Viable cell density (%) [1]: 123.199% | per cell luciferase yield (%) [1]: 150.843%

120 (GGAUCAUGCUAAAAGGAGATT; chemistry not given here; listed as Homo sapiens) [compound 120]
Viable cell density (%) [1]: 54.945% | per cell luciferase yield (%) [1]: 311.516%

115 (AGAUACUGGUAUUGCUCGATT; chemistry not given here; listed as Homo sapiens) [compound 115]
Viable cell density (%) [1]: 54.559% | per cell luciferase yield (%) [1]: 388.072%

84 (GGCUGUACAUAGUCCUUUUTT; chemistry not given here; listed as Homo sapiens) [compound 84]
per_cell (primary screen, 72 h): 238.5 | VIA (primary screen, 72 h): 66.39

151 (GAAACUGCAUGAGAAGACATT; chemistry not given here; listed as Homo sapiens) [compound 151]
Viable cell density (%) [1]: 59.084% | per cell luciferase yield (%) [1]: 288.857%

146 (GACCUAUACUCAUUCUGCATT; chemistry not given here; listed as Homo sapiens) [compound 146]
Viable cell density (%) [1]: 83.351% | per cell luciferase yield (%) [1]: 171.308%

110 (CAAUGAUUCUUACCCUCAATT; chemistry not given here; listed as Homo sapiens) [compound 110]
Viable cell density (%) [1]: 77.169% | per cell luciferase yield (%) [1]: 257.929%

223 (GAUGACUUUUGAUAGUGAATT; chemistry not given here; listed as Homo sapiens) [compound 223]
Luciferase activity (%): 18.0% | Per cell luciferase yield (%): 32.1% | Viable cell number (%): 56.1%

85 (CUGCCGCAACAAUAAGAAATT; chemistry not given here; listed as Homo sapiens) [compound 85]
per_cell (primary screen, 72 h): 171.2 | VIA (primary screen, 72 h): 82.95

91 (CAGCAAACCUUUGACCAGATT; chemistry not given here; listed as Homo sapiens) [compound 91]
per_cell (primary screen, 72 h): 277.5 | VIA (primary screen, 72 h): 55.4

208 (CUUUUAAUGUUAAACUACATT; chemistry not given here; listed as Homo sapiens) [compound 208]
Viable cell density (%) [1]: 110.986% | per cell luciferase yield (%) [1]: 133.601%

132 (GGACGGAAGCGAAAAUCGATT; chemistry not given here; listed as Homo sapiens) [compound 132]
Viable cell density (%) [1]: 71.473% | per cell luciferase yield (%) [1]: 216.209%

122 (AGGGCUAUCUGGUAUCUGUTT; chemistry not given here; listed as Homo sapiens) [compound 122]
Viable cell density (%): 54.854% | per cell luciferase yield (%) [1]: 283.281%

162 (CGAUAUGCUUUUCUACGUUTT; chemistry not given here; listed as Homo sapiens) [compound 162]
Viable cell density (%) [1]: 76.131% | per cell luciferase yield (%) [1]: 235.013%

204 (CUCCCGCAGUUGAACAUCATT; chemistry not given here; listed as Homo sapiens) [compound 204]
Viable cell density (%) [1]: 109.377% | per cell luciferase yield (%) [1]: 136.174%

139 (GGAGAUAUGCAAAGCAGAATT; chemistry not given here; listed as Homo sapiens) [compound 139]
Viable cell density (%) [1]: 83.011% | per cell luciferase yield (%) [1]: 194.043%

55 (CAACGGGACUAUUAUGAUATT; chemistry not given here; listed as Homo sapiens) [compound 55]
per_cell (primary screen, 72 h): 163.4 | VIA (primary screen, 72 h): 89.58

127 (CCAACUACCUGAACGAUGATT; chemistry not given here; listed as Homo sapiens) [compound 127]
Viable cell density (%) [1]: 54.133% | per cell luciferase yield (%) [1]: 311.348%

116 (UGGUCUCAAUGACAGUAGATT; chemistry not given here; listed as Homo sapiens) [compound 116]
Viable cell density (%) [1]: 53.645% | per cell luciferase yield (%) [1]: 370.824%

153 (CACUUUCCUGGGUAUUGUATT; chemistry not given here; listed as Homo sapiens) [compound 153]
Viable cell density (%) [1]: 87.831% | per cell luciferase yield (%) [1]: 171.072%

70 (GAUUAUCCUUGUACUUUGATT; chemistry not given here; listed as Homo sapiens) [compound 70]
per_cell (primary screen, 72 h): 141.8 | VIA (primary screen, 72 h): 101.9

97 (GAUGAAGAAUGAUAAGUCATT; chemistry not given here; listed as Homo sapiens) [compound 97]
Viable cell density (%) [1]: 96.599% | per cell luciferase yield (%) [1]: 184.201%

75 (GCUCAUCGACAUCAAAGUUTT; chemistry not given here; listed as Homo sapiens) [compound 75]
per_cell (primary screen, 72 h): 170.1 | VIA (primary screen, 72 h): 97.01

106 (GCUCAUCGACAUCAAAGUUTT; chemistry not given here; listed as Homo sapiens) [compound 106]
Viable cell density (%) [1]: 97.007% | per cell luciferase yield (%) [1]: 170.088%

95 (CAAGUCACCUGUUACCUCATT; chemistry not given here; listed as Homo sapiens) [compound 95]
Viable cell density (%) [1]: 88.955% | per cell luciferase yield (%) [1]: 171.805%

— US20160319277A1, “METHODS OF IMPROVED PROTEIN PRODUCTION USING MIRNAs AND SIRNAs” (THE JOHNS HOPKINS UNIVERSITY, priority 2015, published 2016)
